The source of these data is article doi:10.1101/208439v1 (biorxiv, 2017).

The target of one test is T1, NSD2 (Homo sapiens, UniProt O96028).
T1 construct: full length (residues 2-1365), N-terminal His tag, insect cell/baculovirus
T1 sequence (O96028 2-1365): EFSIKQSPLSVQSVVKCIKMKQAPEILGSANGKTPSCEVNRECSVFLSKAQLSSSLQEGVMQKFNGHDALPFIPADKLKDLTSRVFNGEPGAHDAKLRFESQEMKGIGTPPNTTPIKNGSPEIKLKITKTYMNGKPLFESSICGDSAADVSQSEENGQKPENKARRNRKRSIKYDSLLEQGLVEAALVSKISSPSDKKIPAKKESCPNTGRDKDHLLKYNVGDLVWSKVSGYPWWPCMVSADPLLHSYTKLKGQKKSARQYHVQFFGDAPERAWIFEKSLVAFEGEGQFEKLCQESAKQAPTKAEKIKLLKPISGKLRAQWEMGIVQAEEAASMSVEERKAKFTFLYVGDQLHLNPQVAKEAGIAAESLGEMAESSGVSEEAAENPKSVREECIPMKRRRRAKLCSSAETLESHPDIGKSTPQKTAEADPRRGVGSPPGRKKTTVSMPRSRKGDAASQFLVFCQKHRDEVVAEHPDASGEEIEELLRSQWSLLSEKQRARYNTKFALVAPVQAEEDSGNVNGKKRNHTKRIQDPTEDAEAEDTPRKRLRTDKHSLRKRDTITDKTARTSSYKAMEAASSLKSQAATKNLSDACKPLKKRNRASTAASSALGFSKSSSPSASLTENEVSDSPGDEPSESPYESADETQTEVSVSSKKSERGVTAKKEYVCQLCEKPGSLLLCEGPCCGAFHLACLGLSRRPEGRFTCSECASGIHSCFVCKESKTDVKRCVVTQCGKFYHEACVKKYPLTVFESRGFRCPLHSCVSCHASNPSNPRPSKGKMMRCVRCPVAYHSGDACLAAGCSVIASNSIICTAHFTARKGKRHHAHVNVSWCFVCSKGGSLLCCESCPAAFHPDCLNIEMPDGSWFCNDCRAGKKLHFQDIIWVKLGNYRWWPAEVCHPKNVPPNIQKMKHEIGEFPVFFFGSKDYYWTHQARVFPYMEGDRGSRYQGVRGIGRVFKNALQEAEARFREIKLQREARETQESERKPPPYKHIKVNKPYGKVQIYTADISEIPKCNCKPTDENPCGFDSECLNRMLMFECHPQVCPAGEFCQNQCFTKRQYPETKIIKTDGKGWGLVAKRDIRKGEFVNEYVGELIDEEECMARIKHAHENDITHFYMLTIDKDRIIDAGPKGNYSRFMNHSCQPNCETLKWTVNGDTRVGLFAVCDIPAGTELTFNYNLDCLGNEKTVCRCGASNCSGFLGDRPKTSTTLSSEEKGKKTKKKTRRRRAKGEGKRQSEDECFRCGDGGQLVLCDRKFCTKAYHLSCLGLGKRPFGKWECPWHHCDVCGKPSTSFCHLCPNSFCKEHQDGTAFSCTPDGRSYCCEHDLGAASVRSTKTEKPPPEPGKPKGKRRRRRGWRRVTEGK
Nature of the test: biochemical. Details: MTase-Glo bioluminescence methyltransferase assay, full-length NSD2 with HeLa nucleosomes. Conditions: read-out: MTase-Glo IC50. The text has this:
A major challenge in screening for small molecule inhibitors is that native NSD2 requires nucleosomes as a substrate ([17]). […] Chemical libraries were screened in 3-dose point quantitative high-throughput screening (qHTS) format ([43]) with the Methyltransferase-Glo (MTase-Glo™) methyltransferase bioluminescence assay ([44]). A number of counter and orthogonal assays were also developed to characterize the hits from the primary screen. Confirmed hits were validated with a radiolabeled SAM substrate-based NSD2 activity assay and further interrogated with binding studies by surface plasmon resonance (SPR), methyltransferase profiling, and activity assessments in U-2 OS cells. […] Overall the reaction conditions were very similar.

A further test addresses PRMT7 (Homo sapiens, UniProt Q9NVM4). Put plainly: biochemical. Conditions: read-out: DA3003-1 IC50; inhibitor.
The target in another test is PRDM9 (Homo sapiens, UniProt Q9NQV7). Conditions: read-out: DA3003-1 IC50; inhibitor.
For the next test, the target named is T2, PRMT5/MEP50 Complex (Homo sapiens, UniProt O14744).
T2 construct: coexpressed Flag-PRMT5 and His-MEP50, insect cell/baculovirus; with Methylosome protein WDR77
Nature of the test: HotSpot [3H]SAM filter-binding methyltransferase assay. In kind it is biochemical. Conditions: histone H2A, […] SAM, pH […] DTT, […] °C, single experiment.

The next test addresses MLL3 Complex (Homo sapiens, UniProt Q8NEZ4). Described as above. In kind it is biochemical. Set-up: gene KMT2C; complex assembled as MLL1; MLL3 His tag, E. coli; with WD repeat-containing protein 5; Set1/Ash2 histone methyltransferase complex subunit ASH2; Protein dpy-30 homolog. The note with it: core histone, […] SAM, pH […] MgCl2, […] DTT, […] °C, single experiment.

The term IC50 denotes the concentration at which inhibition is half-maximal.

SMILES strings stand for the structures.

Chain of PRMT7 (Q9NVM4 whole entry): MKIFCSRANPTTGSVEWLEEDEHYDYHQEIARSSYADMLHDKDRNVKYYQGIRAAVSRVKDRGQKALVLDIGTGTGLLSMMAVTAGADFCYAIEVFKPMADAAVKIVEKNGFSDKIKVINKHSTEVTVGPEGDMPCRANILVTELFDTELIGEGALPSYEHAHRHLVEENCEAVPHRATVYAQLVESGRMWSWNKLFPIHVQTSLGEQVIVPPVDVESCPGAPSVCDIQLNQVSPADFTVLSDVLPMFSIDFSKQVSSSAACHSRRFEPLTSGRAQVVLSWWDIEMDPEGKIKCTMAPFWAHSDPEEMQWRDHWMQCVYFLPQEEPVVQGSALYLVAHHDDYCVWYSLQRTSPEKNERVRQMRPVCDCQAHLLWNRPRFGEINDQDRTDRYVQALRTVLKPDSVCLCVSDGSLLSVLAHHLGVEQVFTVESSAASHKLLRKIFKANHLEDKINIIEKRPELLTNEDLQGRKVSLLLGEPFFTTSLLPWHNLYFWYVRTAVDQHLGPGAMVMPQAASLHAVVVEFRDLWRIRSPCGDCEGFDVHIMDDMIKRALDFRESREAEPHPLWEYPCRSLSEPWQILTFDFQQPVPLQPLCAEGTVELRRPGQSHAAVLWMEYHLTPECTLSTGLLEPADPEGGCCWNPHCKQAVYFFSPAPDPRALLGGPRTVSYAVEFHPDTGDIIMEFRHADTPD
Chain of MLL3 Complex (Q9C005 whole entry): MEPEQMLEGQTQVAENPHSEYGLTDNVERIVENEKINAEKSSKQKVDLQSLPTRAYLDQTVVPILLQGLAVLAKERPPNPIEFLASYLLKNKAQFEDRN
Chain of MLL3 Complex (Q8NEZ4 4689-4911): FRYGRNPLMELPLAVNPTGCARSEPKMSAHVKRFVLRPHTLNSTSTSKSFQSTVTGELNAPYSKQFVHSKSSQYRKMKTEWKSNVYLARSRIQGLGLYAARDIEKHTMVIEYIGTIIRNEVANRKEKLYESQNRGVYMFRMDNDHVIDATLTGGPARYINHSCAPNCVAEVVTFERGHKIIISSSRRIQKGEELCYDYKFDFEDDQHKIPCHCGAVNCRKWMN
Chain of MLL3 Complex (Q9UBL3 96-628, further chain): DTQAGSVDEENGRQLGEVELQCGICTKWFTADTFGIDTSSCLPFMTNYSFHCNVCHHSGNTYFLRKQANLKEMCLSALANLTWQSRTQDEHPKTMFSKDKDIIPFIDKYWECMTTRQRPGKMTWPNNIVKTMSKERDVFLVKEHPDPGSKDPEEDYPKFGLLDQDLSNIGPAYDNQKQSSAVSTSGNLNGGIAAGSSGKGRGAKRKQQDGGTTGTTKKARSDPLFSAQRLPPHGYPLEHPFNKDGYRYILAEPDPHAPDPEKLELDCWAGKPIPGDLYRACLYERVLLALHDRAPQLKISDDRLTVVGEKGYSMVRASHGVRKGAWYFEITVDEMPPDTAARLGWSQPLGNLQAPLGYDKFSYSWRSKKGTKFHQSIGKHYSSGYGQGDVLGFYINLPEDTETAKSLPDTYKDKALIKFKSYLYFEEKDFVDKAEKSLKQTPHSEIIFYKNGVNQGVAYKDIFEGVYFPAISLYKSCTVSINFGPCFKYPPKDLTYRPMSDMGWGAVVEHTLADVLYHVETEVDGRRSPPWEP
Chain of MLL3 Complex (Q15291 whole entry, further chain): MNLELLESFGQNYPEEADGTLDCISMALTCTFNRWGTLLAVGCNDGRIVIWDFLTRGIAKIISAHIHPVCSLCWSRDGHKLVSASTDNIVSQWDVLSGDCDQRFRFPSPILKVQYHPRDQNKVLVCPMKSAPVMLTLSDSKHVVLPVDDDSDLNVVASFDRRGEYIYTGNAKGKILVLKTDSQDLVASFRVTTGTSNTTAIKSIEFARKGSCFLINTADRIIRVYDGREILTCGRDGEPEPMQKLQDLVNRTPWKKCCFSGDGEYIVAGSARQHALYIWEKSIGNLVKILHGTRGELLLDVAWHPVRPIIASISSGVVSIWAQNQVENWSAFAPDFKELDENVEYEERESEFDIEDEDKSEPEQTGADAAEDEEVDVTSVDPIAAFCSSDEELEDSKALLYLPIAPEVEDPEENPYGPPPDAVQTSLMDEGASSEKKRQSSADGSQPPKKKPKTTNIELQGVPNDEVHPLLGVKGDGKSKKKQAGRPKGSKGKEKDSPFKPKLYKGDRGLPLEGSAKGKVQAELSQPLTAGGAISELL
T2 sequence (O14744 2-637): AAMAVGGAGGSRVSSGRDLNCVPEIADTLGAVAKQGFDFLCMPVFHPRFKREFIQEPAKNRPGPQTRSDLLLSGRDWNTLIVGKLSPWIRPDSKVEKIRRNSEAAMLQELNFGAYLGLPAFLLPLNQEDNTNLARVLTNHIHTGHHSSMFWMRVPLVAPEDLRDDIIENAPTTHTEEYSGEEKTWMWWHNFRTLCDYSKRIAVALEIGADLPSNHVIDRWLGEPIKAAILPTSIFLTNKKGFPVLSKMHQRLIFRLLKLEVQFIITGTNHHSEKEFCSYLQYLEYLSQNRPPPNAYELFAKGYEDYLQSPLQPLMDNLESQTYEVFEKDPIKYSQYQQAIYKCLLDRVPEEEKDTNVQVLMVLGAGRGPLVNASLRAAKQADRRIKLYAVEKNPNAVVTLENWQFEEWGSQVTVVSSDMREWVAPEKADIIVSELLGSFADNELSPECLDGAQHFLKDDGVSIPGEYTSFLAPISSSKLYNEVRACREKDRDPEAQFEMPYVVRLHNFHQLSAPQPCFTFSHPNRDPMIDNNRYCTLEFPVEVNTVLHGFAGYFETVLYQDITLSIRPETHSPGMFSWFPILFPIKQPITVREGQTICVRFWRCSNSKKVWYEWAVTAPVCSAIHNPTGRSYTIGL
T2 sequence (Q9BQA1 2-342 partner): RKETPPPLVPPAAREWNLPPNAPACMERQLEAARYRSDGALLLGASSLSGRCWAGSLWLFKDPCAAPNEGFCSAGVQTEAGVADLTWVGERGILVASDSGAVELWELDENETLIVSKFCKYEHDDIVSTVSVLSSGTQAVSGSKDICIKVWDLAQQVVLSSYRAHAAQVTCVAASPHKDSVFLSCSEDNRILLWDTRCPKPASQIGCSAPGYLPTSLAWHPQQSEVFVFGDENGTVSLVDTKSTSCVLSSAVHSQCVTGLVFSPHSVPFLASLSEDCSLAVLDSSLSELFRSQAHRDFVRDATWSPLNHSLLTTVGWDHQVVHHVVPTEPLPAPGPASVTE
Chain of PRDM9 (Q9NQV7 whole entry): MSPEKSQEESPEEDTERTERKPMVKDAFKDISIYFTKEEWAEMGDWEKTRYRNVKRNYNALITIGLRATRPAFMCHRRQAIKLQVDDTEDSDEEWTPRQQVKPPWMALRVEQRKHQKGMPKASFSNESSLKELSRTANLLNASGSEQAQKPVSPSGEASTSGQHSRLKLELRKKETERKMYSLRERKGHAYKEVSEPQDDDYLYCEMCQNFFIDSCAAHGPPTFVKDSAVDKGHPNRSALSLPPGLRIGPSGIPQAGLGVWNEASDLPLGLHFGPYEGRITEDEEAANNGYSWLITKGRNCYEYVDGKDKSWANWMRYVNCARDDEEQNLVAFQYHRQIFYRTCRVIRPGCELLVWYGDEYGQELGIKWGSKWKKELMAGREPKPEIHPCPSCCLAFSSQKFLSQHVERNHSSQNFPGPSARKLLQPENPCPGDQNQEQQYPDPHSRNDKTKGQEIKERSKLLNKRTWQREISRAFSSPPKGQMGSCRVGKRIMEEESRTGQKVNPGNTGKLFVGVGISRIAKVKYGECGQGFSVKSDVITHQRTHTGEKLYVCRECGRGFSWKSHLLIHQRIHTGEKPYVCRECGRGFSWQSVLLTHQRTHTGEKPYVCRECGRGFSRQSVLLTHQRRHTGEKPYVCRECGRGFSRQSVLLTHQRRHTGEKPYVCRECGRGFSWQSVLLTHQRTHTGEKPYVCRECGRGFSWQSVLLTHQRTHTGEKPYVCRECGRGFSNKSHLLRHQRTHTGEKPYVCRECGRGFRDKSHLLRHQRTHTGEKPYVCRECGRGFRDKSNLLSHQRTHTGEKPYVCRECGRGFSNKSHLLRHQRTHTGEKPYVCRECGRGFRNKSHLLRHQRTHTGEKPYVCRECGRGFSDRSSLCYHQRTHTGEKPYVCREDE

Turning to `CC1(C)CCC(CN2CCN(c3ccc(C(=O)NS(=O)(=O)c4ccc(NCC5CCOCC5)c([N+](=O)[O-])c4)c(Oc4cnc5[nH]ccc5c4)c3)CC2)=C(c2ccc(Cl)cc2)C1` [ABT-199], at NSD2, the IC50 was 15000 nM.
Turning to `O=C1C(Cl)=C(NCCN2CCOCC2)C(=O)c2ncccc21` [DA3003-1], the IC50 on PRMT7 came to 420 nM; on PRDM9, 370 nM.
As to `COc1cccc(-n2nc(C(=O)O)cc2-c2ccc(C3CCCCC3)c(Cl)c2)c1` [TC LPA5 4], the values for the IC50 at PRMT5/MEP50 Complex and on MLL3 Complex were 330 nM and 63000 nM, respectively.
